Tests used:
[1] = Thermal unfolding (thermal denaturation) followed by circular dichroism at 225 nm; assay type: physicochemical; settings: CD, minimum of the derivative of fraction folded plot; 0.2 mM peptide, 10 mM sodium phosphate pH 7.0; not preheated; mixtures at ratio 1:2
Experimental: (§1) CD spectra were recorded on an Aviv 410 circular dichroism spectrometer equipped with temperature controller. Peptide solutions at concentrations of 200 μM were used. All sample solutions made in 10 mM sodium phosphate-dibasic buffer (pH 7.0) were equilibrated for 24 hr at 4° C. before CD measurements. A Quartz Cell of 1 mm path length was used. For wavelength scan, temperature was increased to the desired points at a rate of 10° C./hr and the sample solutions were equilibrated for 10 min before the measurements. Spectra were recorded from 260 to 190 nm and mean residue ellipticity [θ] was calculated as follows;
(§2) θ represents the ellipticity in millidegrees, N the number of amino acid residues, c the molar concentration in mol·L^−1, and l the cell path length in cm. Thermal denaturation curves were obtained at final peptide concentrations of 0.2 mM and molar ellipticity at 225 nm was measured as a function of temperature in a range of 5 to 80° C. at a heating rate of 10° C./hr. All annealed samples were heated for 30 min at 85° C. and then cooled down to 4° C. at a rate of 1° C./min followed by equilibration for 24 hr at 4° C. before the measurements. The melting temperatures were determined from the minimum points in the first derivative of the melting curves.

[2] = CD wavelength scan, helical conformation at a set temperature; assay type: physicochemical; settings: 200 μM peptide, pH 7.0
Experimental: as §1, §2

Row | Tm (melting temperature of triple helix) [1] | conformation by CD at 25° C. [2] | Substance
1 | No triple helix | random coil conformations | Ac-(PXG)2-(PKG)4-(PXG)2-C(O)NH2 [Peptide 2]
2 | 39.4 °C | retained the PPII helical structure | Ac-(PXG)2-(PRG)4-(PXG)2-C(O)NH2 [Peptide 3]

From US20160075765A1, “MODIFIED COLLAGEN MOLECULES” (AGENCY FOR SCIENCE, TECHNOLOGY AND RESEARCH, priority 2013, published 2016)
